Test results reported in patent US9840498B2, “Substituted quinazolin-4-one derivatives” (NOVARTIS AG, priority 2013, dated 2017).

How the values were obtained:
Conditions in all cases: enzymatic assay
PI3K delta = PI3K delta (Homo sapiens (Human), UniProt O00329); experiment: Biochemical assay for PI3Kdelta (Adapta TR-FRET format)
Excerpt: (§1) For the enzymatic assays, the preparation of PI3K gene constructs, protein expression and purification for HTS are described in WO2012/004299. […] The TR-FRET Adapta™ Universal Kinase Assay Kit was purchased from Invitrogen Corporation (Carlsbad/CA, USA) (Cat. No. PV5099). The kit contains the following reagents: Adapta Eu-anti-ADP Antibody (Europium labeled anti-ADP antibody in HEPES buffered saline, Cat. No. PV5097), Alexa Fluor® 647-labeled ADP tracer (Alexa Fluor® 647-labeled ADP tracer in HEPES buffered saline, Cat. No. PV5098), proprietary TR-FRET dilution buffer pH 7.5 (Cat. No. PV3574). PIK3CD substrate Phosphatidylinositol was obtained from Invitrogen (vesicules consisting of 2 mM PI in 50 mM HEPES pH7.5; Cat. No. PV5371). PIK3CG substrate Phosphatidylinositol-4,5-bisphosphate (PIP(4,5)2 was obtained from Invitrogen (PIP2:PS large unilamellar vesicules consisting of 1 mM PI P2: 19 mM PS in 50 mM HEPES pH7.5, 3 mM MgCl2, 1 mM EGTA; Cat. No. PV5100). Time-Resolved Fluorescence Resonance Energy Transfer (TR-FRET) is a technology based on energy transfer between two adjacent dyes, from an excited electron in one dye (the donor) to an electron of an adjacent dye (the acceptor) through resonance, then released as a photon. This energy transfer is detected by an increase in the fluorescence emission of the acceptor, and a decrease in the fluorescence emission of the donor. TR-FRET assays for protein kinases use a long-lifetime lanthanide Terbium or Europium chelates as the donor species which overcome interference from compound autofluorescence or light scatter from precipitated compounds, by introducing a delay after excitation by a flashlamp excitation source. Results are often expressed as a ratio of the intensities of the acceptor and donor fluorophores. The ratiometric nature of such a value corrects for differences in assay volumes between wells, as well as corrects for quenching effects due to colored compounds. The Adapta™ assay can be divided into two phases: a kinase reaction phase and an ADP detection phase. In the kinase reaction phase, all kinase reaction components are added to the well and the reaction is allowed to incubate for a set period of time specific for each kinase. After the reaction, a detection solution of Eu-labeled anti-ADP antibody, Alexa Fluor® 647-labeled ADP tracer, and EDTA (to stop the kinase reaction) are added to the assay well. ADP formed by the kinase reaction will displace the Alexa Fluor® 647-labeled ADP tracer from the antibody, resulting in a decrease in TR-FRET signal. In the presence of an inhibitor, the amount of ADP formed by the kinase reaction is reduced, and the resulting intact antibody-tracer interaction maintains a high TR-FRET signal. In the Adapta™ assay, the donor (Europium-anti-ADP antibody) is excited at 340 nm and will transfer its energy to the acceptor (Alexa Fluor® 647-labeled ADP tracer). The emission from the Alexa Fluor® 647 can be monitored with a filter centered at 665 nm because it is located between the emission peaks of the donor, which is measured at 615/620 nm. 50 nL of compound dilutions were dispensed onto white 384-well small volume polystyrene plate as described in section 2.2. Then 5 μL of PI3Kgamma and PI3Kdelta and lipid substrate (PI or PIP2:PS) followed by 5 μL of ATP (final assay volume 10 μL) are incubated at RT. […] Reactions were stopped with 5 μL of a mixture of EDTA containing the Eu-labeled anti-ADP antibody and the Alexa Fluor® 647-labeled ADP tracer in TR-FRET dilution buffer (proprietary to IVG). Plates are read 15 to 60 mins later in a Synergy2 reader using an integration time of 0.4 seconds and a delay of 0.05 seconds. […] The control for the 0% inhibition was given by the solvent vehicle of the compounds (90% DMSO in H2O). Data are analyzed using Excel fit software or Graphpad Prism. EC50 values were derived by fitting a sigmoidal dose-response curve to a plot of assay readout over inhibitor concentration. […]

PI3K alpha = PI3K alpha (Homo sapiens (Human), UniProt P42336); experiment: Biochemical assay for PI3Kalpha (Kinase-Glo format)
Protocol: 1.1 Generation of Gene Constructs, Protein Expression and Purification
For the enzymatic assays, the preparation of PI3K gene constructs, protein expression and purification for HTS are described in WO2012/004299.
1.2 Biochemical Assays for PI3Kalpha, PI3Kbeta (Kinase-Glo Format)
The kinase reaction is performed in a final volume of 50 μl per well of a half area COSTAR, 96 well plate. The final concentrations of ATP and phosphatidyl inositol in the assay are 5 μM and 6 μg/mL, respectively. The reaction is started by the addition of PI3 kinase, e.g. PI3 kinase α.
The components of the assay are added per well as follows: • 10 μl test compound in 5% DMSO per well in […]. • Total activity is determined by addition 10 μl of 5% vol/vol DMSO in the first 4 wells of column 1 and the last 4 wells of column 12. • The background is determined by addition of 10 μM control compound to the last 4 wells of column 1 and the first 4 wells of column 12. • 2 mL ‘Assay mix’ are prepared per plate: • 1.912 mL of HEPES assay buffer • 8.33 μl of 3 mM stock of ATP giving a final concentration of 5 μM per well • 1 μl of [^33P]ATP on the activity date giving 0.05 μCi per well • 30 μl of 1 mg/mL PI stock giving a final concentration of 6 μg/mL per well • 5 μl of 1 M stock MgCl2 giving a final concentration of 1 mM per well • 20 μl of the assay mix are added per well. • 2 mL ‘Enzyme mix’ are prepared per plate (x* μl PI3 kinase p110α in 2 mL of kinase buffer). The ‘Enzyme mix’ is kept on ice during addition to the assay plates. * The volume of enzyme is dependent on the enzymatic activity of the batch in use. • 20 μl ‘Enzyme mix’ are added/well to start the reaction. • The plate is then incubated at room temperature for 90 minutes. • The reaction is terminated by the addition of 50 μl WGA-SPA bead (wheat germ agglutinin-coated Scintillation Proximity Assay beads) suspension per well. • The assay plate is sealed using TopSeal-S (heat seal for polystyrene microplates, PerkinElmer LAS [Deutschland] GmbH, Rodgau, Germany) and incubated at room temperature for at least 60 minutes. • The assay plate is then centrifuged at 1500 rpm for 2 minutes using the Jouan bench top centrifuge (Jouan Inc., Nantes, France). • The assay plate is counted using a Packard TopCount, each well being counted for 20 seconds.
In a more preferred assay, the kinase reaction is performed in a final volume of 10 μl per well of a low volume non-binding CORNING, 384 well black plate (Cat. No. #3676). The final concentrations of ATP and phosphatidyl inositol (PI) in the assay are 1 μM and 10 μg/mL, respectively. The reaction is started by the addition of ATP.
The components of the assay are added per well as follows: […]

PI3K gamma = PI3K gamma (Homo sapiens (Human), UniProt P48736); experiment: Biochemical assay for PI3Kgamma (Adapta TR-FRET format)
Excerpt: as §1

Chain of PI3K alpha (P42336 21-1068): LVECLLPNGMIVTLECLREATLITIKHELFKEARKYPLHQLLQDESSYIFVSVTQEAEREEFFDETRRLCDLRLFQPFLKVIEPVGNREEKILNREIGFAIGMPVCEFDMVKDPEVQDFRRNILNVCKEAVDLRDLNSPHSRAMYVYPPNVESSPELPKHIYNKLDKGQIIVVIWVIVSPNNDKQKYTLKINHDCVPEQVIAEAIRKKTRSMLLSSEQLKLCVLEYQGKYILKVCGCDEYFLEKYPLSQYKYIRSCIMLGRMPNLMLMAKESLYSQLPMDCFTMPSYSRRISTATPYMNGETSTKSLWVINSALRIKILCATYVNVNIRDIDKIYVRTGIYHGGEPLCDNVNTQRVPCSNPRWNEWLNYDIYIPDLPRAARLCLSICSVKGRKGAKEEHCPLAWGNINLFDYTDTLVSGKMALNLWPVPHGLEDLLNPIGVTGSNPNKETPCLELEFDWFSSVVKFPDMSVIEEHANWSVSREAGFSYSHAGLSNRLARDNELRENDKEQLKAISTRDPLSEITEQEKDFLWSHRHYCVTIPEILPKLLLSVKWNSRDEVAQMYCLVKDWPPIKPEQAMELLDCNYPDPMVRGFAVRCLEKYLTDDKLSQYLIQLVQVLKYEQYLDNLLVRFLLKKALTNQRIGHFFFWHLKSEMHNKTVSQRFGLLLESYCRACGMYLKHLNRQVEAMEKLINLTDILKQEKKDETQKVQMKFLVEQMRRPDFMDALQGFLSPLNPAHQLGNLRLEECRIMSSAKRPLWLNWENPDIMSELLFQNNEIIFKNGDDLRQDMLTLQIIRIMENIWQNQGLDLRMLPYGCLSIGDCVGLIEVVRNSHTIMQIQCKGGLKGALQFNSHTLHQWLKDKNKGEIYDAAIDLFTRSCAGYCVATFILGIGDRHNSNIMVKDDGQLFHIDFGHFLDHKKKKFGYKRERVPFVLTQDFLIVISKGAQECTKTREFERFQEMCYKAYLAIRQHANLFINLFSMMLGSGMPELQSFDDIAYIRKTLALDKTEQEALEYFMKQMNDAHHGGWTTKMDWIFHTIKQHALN
Chain of PI3K alpha (P27986 461-568 partner): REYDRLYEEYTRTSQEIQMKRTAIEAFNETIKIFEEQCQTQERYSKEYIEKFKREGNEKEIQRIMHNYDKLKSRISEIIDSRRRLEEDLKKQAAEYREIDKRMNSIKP
Chain of PI3K gamma (P48736 whole entry): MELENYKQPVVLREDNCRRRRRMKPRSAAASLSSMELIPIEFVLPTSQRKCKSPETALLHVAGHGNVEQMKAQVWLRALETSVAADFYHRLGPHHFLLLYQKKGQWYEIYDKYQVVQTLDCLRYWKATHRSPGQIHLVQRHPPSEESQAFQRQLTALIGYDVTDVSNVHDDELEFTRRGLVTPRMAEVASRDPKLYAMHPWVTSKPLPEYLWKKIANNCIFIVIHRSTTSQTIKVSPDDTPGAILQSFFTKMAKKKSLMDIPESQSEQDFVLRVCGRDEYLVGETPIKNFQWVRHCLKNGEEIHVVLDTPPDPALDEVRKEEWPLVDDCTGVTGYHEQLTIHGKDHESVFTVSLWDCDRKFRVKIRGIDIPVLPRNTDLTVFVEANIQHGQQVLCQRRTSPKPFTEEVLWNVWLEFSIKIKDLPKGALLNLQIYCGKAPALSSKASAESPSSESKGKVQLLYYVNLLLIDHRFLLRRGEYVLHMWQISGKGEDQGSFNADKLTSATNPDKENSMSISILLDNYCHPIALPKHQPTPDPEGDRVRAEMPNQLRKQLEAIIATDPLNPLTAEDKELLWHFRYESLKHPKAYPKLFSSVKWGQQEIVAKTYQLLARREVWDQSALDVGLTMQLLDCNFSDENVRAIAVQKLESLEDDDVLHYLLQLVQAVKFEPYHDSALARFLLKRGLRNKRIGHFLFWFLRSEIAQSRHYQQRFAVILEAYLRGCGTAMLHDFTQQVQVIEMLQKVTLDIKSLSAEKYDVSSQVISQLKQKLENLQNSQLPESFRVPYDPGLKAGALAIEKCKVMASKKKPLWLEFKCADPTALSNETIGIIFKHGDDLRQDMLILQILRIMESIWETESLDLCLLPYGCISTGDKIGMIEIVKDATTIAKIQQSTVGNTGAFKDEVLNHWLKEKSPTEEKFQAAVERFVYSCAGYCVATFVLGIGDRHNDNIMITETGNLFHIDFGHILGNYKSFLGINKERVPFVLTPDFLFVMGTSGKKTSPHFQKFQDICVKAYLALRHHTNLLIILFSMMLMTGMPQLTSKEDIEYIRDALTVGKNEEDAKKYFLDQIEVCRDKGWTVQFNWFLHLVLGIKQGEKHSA
Chain of PI3K delta (O00329 2-1044): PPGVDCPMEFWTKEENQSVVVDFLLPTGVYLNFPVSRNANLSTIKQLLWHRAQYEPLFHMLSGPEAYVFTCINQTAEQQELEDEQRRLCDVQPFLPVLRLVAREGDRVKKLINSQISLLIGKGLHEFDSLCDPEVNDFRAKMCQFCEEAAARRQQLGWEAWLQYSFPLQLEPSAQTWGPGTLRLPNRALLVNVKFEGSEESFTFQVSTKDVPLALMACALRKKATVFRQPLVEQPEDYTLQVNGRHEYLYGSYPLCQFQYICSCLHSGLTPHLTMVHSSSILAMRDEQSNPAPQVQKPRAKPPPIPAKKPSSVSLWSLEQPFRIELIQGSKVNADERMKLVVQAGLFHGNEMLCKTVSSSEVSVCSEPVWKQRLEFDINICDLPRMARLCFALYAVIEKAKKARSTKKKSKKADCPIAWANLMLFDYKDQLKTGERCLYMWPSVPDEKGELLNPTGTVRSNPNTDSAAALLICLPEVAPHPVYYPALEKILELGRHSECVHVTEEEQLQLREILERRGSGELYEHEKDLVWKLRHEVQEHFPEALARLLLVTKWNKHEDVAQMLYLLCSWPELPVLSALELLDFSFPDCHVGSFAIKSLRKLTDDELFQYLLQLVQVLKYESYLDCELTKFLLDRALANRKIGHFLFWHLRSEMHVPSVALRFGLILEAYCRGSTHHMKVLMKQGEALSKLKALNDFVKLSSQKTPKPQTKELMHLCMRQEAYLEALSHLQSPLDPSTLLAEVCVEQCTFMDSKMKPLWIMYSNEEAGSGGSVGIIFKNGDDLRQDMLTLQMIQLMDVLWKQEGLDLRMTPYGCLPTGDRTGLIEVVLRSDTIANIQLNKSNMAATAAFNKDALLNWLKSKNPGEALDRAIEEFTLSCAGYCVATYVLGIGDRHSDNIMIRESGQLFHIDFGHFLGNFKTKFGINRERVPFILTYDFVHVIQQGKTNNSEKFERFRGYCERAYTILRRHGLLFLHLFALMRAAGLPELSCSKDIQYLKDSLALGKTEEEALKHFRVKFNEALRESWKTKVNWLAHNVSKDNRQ
Chain of PI3K delta (P27986 461-568 partner): as the sequence (P27986 461-568 partner) above

| IC50 (PI3K delta) [nM] | IC50 (PI3K alpha) [nM] | IC50 (PI3K gamma) [nM] | SMILES |
| --- | --- | --- | --- |
| 8 | 74 | 28 | Cc1nc(N)nc(N2C[C@@H](O)C[C@H]2c2nc3ccc(F)c(-c4cnn(C)c4)c3c(=O)n2-c2ccccc2)c1C#N [Example 1, 2-Amino-4-((2S,4S)-2-(6-fluoro-5-(1-methyl-1H-pyrazol-4-yl)-4-oxo-3-phenyl-3,4-dihydroquinazolin-2-yl)-4-hydroxypyrrolidin-1-yl)-6-methylpyrimidine-5-carbonitrile] |
| – | 1300 | 150 | Cn1cc(-c2cccc3nc([C@@H]4CCCN4c4ncnc(N)c4C#N)n(-c4ccccc4)c(=O)c23)cn1 [Example 2, (S)-4-Amino-6-(2-(5-(1-methyl-1H-pyrazol-4-yl)-4-oxo-3-phenyl-3,4-dihydroquinazolin-2-yl)pyrrolidin-1-yl)pyrimidine-5-carbonitrile] |
| 8 | 1400 | 1200 | COc1ncc(-c2cccc3nc([C@@H]4CCCN4c4ncnc(N)c4C#N)n(-c4ccccc4)c(=O)c23)cn1 [Example 3, (S)-4-Amino-6-(2-(5-(2-methoxypyrimidin-5-yl)-4-oxo-3-phenyl-3,4-dihydroquinazolin-2-yl)pyrrolidin-1-yl)pyrimidine-5-carbonitrile] |
| 6 | 320 | 82 | COc1ncc(-c2cccc3nc([C@@H]4CCCN4c4nc(N)nc(C)c4C#N)n(-c4ccccc4)c(=O)c23)cn1 [Example 4, (S)-2-Amino-4-(2-(5-(2-methoxypyrimidin-5-yl)-4-oxo-3-phenyl-3,4-dihydroquinazolin-2-yl)pyrrolidin-1-yl)-6-methylpyrimidine-5-carbonitrile] |
| 4 | 230 | 85 | Cn1cc(-c2c(F)ccc3nc([C@@H]4CCCN4c4ncnc(N)c4C#N)n(-c4ccccc4)c(=O)c23)cn1 [Example 5, (S)-4-Amino-6-(2-(6-fluoro-5-(1-methyl-1H-pyrazol-4-yl)-4-oxo-3-phenyl-3,4-dihydroquinazolin-2-yl)pyrrolidin-1-yl)pyrimidine-5-carbonitrile] |
| 9 | 130 | 56 | Cc1nc(N)nc(N2CCC[C@H]2c2nc3ccc(F)c(-c4cnn(C)c4)c3c(=O)n2-c2ccccc2)c1C#N [Example 6, (S)-2-Amino-4-(2-(6-fluoro-5-(1-methyl-1H-pyrazol-4-yl)-4-oxo-3-phenyl-3,4-dihydroquinazolin-2-yl)pyrrolidin-1-yl)-6-methylpyrimidine-5-carbonitrile] |
| 6 | 210 | 110 | COc1ncc(-c2c(F)ccc3nc([C@@H]4C[C@H](O)CN4c4nc(N)nc(C)c4C#N)n(-c4ccccc4)c(=O)c23)cn1 [Example 7, 2-Amino-4-((2S,4S)-2-(6-fluoro-5-(2-methoxypyrimidin-5-yl)-4-oxo-3-phenyl-3,4-dihydroquinazolin-2-yl)-4-hydroxypyrrolidin-1-yl)-6-methylpyrimidine-5-carbonitrile] |
| 14 | 1100 | 750 | Cn1cc(-c2c(F)ccc3nc([C@@H]4C[C@H](O)CN4c4ncnc(N)c4C#N)n(-c4ccccc4)c(=O)c23)cn1 [Example 8, 4-Amino-6-((2S,4S)-2-(6-fluoro-5-(1-methyl-1H-pyrazol-4-yl)-4-oxo-3-phenyl-3,4-dihydroquinazolin-2-yl)-4-hydroxypyrrolidin-1-yl) pyrimidine-5-carbonitrile] |
| 8 | 53 | 18 | COc1ncc(-c2c(F)ccc3nc([C@@H]4C[C@H](O)CN4c4nc(N)nc(C)c4C#N)n(-c4ccccc4)c(=O)c23)s1 [Example 9, 2-Amino-4-((2S,4S)-2-(6-fluoro-5-(2-methoxythiazol-5-yl)-4-oxo-3-phenyl-3,4-dihydroquinazolin-2-yl)-4-hydroxypyrrolidin-1-yl)-6-methylpyrimidine-5-carbonitrile] |
| 6 | 1300 | 38 | CO[C@H]1C[C@@H](c2nc3cccc(-c4cnn(C)c4)c3c(=O)n2-c2ccccc2)N(c2nc(N)nc(C)c2C#N)C1 [Example 10, 2-Amino-4-((2S,4S)-4-methoxy-2-(5-(1-methyl-1H-pyrazol-4-yl)-4-oxo-3-phenyl-3,4-dihydroquinazolin-2-yl)pyrrolidin-1-yl)-6-methylpyrimidine-5-carbonitrile] |
| 45 | 2300 | 230 | CO[C@H]1C[C@@H](c2nc3cccc(-c4cnn(C)c4)c3c(=O)n2-c2ccccc2)N(c2nc(N)nc3[nH]cnc23)C1 [Example 11, 2-((2S,4S)-1-(2-Amino-9H-purin-6-yl)-4-methoxypyrrolidin-2-yl)-5-(1-methyl-1H-pyrazol-4-yl)-3-phenylquinazolin-4(3H)-one] |
| 5 | 1200 | 210 | COc1ncc(-c2cccc3nc([C@@H]4C[C@H](OC)CN4c4nc(N)nc(C)c4C#N)n(-c4ccccc4)c(=O)c23)cn1 [Example 12, 2-Amino-4-((2S,4S)-4-methoxy-2-(5-(2-methoxypyrimidin-5-yl)-4-oxo-3-phenyl-3,4-dihydroquinazolin-2-yl)pyrrolidin-1-yl)-6-methylpyrimidine-5-carbonitrile] |
